Entries after “also recorded” stand apart in the source; their conditions may differ. Read-outs that look alike come from different tables or passages of the source. Values belong to the compound of their own block, whether it stands above or below them.
Key:
[1] = target: human ENO1 (Homo sapiens, UniProt P06733); assay: Enolase enzymatic activity, NADH-linked pyruvate kinase/lactate dehydrogenase fluorescence assay, ENO1
[2] = target: ENO2 (Homo sapiens, UniProt P09104); assay: Enolase enzymatic activity and Michaelis-Menten kinetic analysis, ENO2; details: for inhibition kinetics with respect to substrate 2-PGA: SF2312: at IC50
[3] = system: ENO1 null glioma cells (D423-MG); assay: Growth inhibition by live imaging (Incucyte) / crystal violet; assay type: cell-based, human; details: for IC50: Homo sapiens, D-423MG, 72 h, confluence over 3 days, read-out: approximate IC50 for growth inhibition of ENO1 null glioma cells
Experimental: (§1) Cell proliferation of glioma cell lines was assayed either through crystal violet staining or by live-cell confluence measurements with the IncuCyte (Essen BioScience). Growth curves using the IncuCyte were generated by confluence imaging every 4 hours with duplicate replicates with an initial seeding of 1500 cells/well in 96-well plates. At the indicated time point, cells were fixed with 10% formalin and stained with crystal violet. Dye extraction was performed using 10% acetic acid solution, and absorbance was read at 595 nm. Apoptotic cells were counted by staining with YO-PRO®-1 Iodide (491/509, Life Technologies, Y3603). Apoptotic cells become permeable to YO-PRO®-1 while live cells are not stained. Alternatively, Propidium Iodide was employed (Life Technologies) instead of YO-PRO. Total cell number was quantified by Hoechst 33342 (Cat# H3570 Invitrogen). Cells were seeded as 2×10^3 cells/well in 96-well plates and treated in the presence or absence of doxycycline. On the day of apoptosis survey, old media was removed and each well was filled to 100 μl with fresh media. Hoechst and YO-PRO®-1 were mixed in 1:100 PBS and 10 μl of the mixture was added in each well gently without touching the cells for a final dilution of 1:1000 from stock. Plates were then incubated at 37° C. for 2 hours. Image capture and quantification was done by High Content Screening System—Operetta (Perkin Elmer). ATP content was measured with the luciferase/luciferin CellTiter-Glo® assay. Briefly, 100 μl of CellTiter-Glo® assay media was added to 96-well plates containing 100 μl of media and cells. Lysis was achieved by the […] in the buffer and vigorous pipetting, and luminescence was determined using an Omega Luminescence Plate Reader (BMG Labtech). Results were expressed relative to vehicle treated control.
(§2) The inhibitor effects were followed live-cell confluence measurements with the IncuCyte (Essen BioScience) as we described previously (Muller et al., 2012). Growth curves using the IncuCyte were generated by confluence imaging every 2 hours with quadruplicate replicates with and initial seeding of 10^3 cells/well in 96-well plates.
(§3) At the indicated time point (usually 2 weeks), cells were fixed with 10% formalin and stained with 0.1% crystal violet solution for 1 h as described previously (Muller et al., 2012). Dye extraction was performed using 10% acetic acid solution, and absorbance was read at 595 nm.

[4] = system: enolase (ENO1 and ENO2); assay: Enolase inhibitory activity in vitro, isoform not distinguished (ENO1 and ENO2); assay type: biochemical, human
[5] = Stability in cell culture media by proton-decoupled 31P NMR
[6] = Hematocrit / hemolytic anemia after IV administration; details: for hematocrit after treatment (drop from 45%): 100 mg/kg IV for longer than a week; for dose at which mild hemolytic anemia can be observed: as low as
Source text: Erythrocytes are sensitive to disruptions in the glycolytic cycle as glycolysis is the cell's only source of energy in the form of ATP.

[7] = system: ENO1 deleted glioma cells in neurospheres; assay: Cell viability in 3 dimensional neurosphere conditions (tetramethylrhodamine); assay type: cell-based, human
Experimental: The cellular viability studies of 3-dimensional tumospheres was performed by using the vital dye, tetramethylrhomdamine ethyl ester (TMRE). […] For reference, a brightfield picture was also taken.
To more accurately model tumors, glioma cells were grown in 3 dimensional neurosphere conditions. The surface to volume ratio of the neurosphere was considerably smaller than in convention cell culture conditions and as such, compounds with poor cell penetration such as phosphonates have considerably lower efficacy than in conventional cell culture. […] However, under the same conditions, the cell permeable pro-drug, Pom-Hex, was highly toxic to ENO1 deleted glioma cells (FIG. 10B). Cell viability in spheres was monitored using 100 nM of tetramethylrhodamine, which is actively taken up by live but not dead cells.

[8] = system: ATP levels in D423 ENO1-deleted glioma cells; assay: ATP content (CellTiter-Glo); assay type: cell-based, human; details: 8 hours of treatment
Experimental: as §1

[9] = system: conversion of 13C-glucose to 13C-lactate in D423 ENO1-deleted glioma cells; assay: 13C-NMR tracing of uniformly labeled 13C-glucose to 13C-lactate; details: 48 hours, 10 mM 13C-uniformly labeled glucose
[10] = system: normal human astrocytes; assay: Sensitivity under conventional growth conditions, normal cells; assay type: cell-based
Experimental: as §2, §3

[11] = physchem
[12] = system: cell lines heterozygously deleted for ENO1; assay: Sensitivity under conventional growth conditions, ENO1 heterozygous lines; assay type: cell-based, human
Experimental: as §2, §3

[13] = system: ENO1 deleted Glioblastoma cell line, Gli56; assay: Intracranial Gli56 glioblastoma tumors tracked by T2 MRI; assay type: in vivo, NUDE immunocompromised mice; details: Pom-SF2312 at 4 MPK
Source text: Animals (NUDE immunocompromised mice) injected intracranially with the ENO1 deleted Glioblastoma cell line, Gli56. After 30 days, tumors became readily visible by MRI (T2, the white hyperintense regions are tumor on the background grey of the normal brain). In the absence of treatment, Gli56 tumors grow continuously (Mouse #1, and Mouse #3, from Day 30 to Day 40). […] The tumors have not recurred after discontinuation of treatment.

[14] = system: D423-MG glioma cells (1p36 deletion spanning ENO1); assay: Intracranial D423-MG glioma tumors tracked by T2 MRI; assay type: in vivo, Nude mice; details: 10 mg/kg intravenous for 11 days
Experimental: Nude mice were injected with D423-MG glioma cells which carry the 1p36 deletion spanning ENO1. Tumors formed around 30 days post injection and growth was tracked non-invasively by T2 MRI. In the absence of treatment, tumors grew continuously, ultimately killing the animal. The tumor area (right side of the brain) is distinguished from the normal mouse brain by high contrast. MRI measurements were performed in a 4.7 T Biospec USR47/40 (Bruker Biospin MRI, Billerica, Mass.) at the M. D. Anderson small animal imaging facility (SAIF). Briefly, animals were maintained under deep anesthesia with isoflurane with body temperature maintained by a heating blanket. Anesthetized mice were restrained with the head held in a stereotactic holder. Breathing was monitored and synchronized with the instrument. Routine tumor detection was done by T2-weighed imaging. First, a low resolution axial scan is taken to center the field properly, after which a series of high resolution axial and coronal scans are recorded.
Nude mice were injected with D423-MG glioma cells which carry the 1p36 deletion spanning ENO1. Tumors formed around 30 days post injection and growth was tracked non-invasively by T2 MRI. In the absence of treatment, tumors grew continuously, ultimately killing the animal. The tumor area (right side of the brain) was distinguished from the normal mouse brain by high contrast. […]

[15] = system: VHL deleted kidney cancer cell lines RCC4 and 786-O; assay: Live growth imaging (Incucyte) of VHL deleted vs VHL rescued kidney cancer cells; assay type: cell-based, human
Experimental: as §2
VHL is a common event in renal clear cell carcinoma. Deletion of VHL activates the HIF pathway, suppressing respiration and rendering cancer cells highly dependent on glycolysis. As such, efforts have been made to target glycolysis to achieve selective toxicity to VHL deficient kidney cancer. As such, the enolase inhibitor Pom-Hex was tested in VHL deteted kidney cancer cell lines. In two independent VHL deleted kidney cancer cell lines, RCC4 (bottom) and 786-O (top panel), the enolase inhibitor, Pom-Hex, was 4-8 times more toxic to the VHL deleted (upper), compared to isogenic rescued controls, expressing VHL from an ectopic locus (lower panels, italics). As in FIG. 12, growth in response to increasing doses of Pom-Hex was measured by live growth imaging using the Incucyte.

[16] = Maximum tolerated dose; set-up: species or system NUDE immunocompromised mice; details: mouse, in vivo
[17] = up to 10 mM, lysates of D423 ENO1 and ENO2 expressing cells

Sequence of ENO2 (P09104 whole entry): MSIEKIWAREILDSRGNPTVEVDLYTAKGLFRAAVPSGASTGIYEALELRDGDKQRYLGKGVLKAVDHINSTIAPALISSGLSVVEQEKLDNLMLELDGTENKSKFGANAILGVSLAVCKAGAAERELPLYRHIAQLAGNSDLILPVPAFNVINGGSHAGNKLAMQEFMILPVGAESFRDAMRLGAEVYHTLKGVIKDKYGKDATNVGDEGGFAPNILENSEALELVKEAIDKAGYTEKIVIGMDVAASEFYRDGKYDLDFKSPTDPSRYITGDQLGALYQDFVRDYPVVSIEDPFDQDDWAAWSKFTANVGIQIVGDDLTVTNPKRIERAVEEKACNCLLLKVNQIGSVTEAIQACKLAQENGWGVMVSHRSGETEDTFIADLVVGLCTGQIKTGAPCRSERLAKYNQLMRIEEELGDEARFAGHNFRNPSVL
Sequence of human ENO1 (P06733 whole entry): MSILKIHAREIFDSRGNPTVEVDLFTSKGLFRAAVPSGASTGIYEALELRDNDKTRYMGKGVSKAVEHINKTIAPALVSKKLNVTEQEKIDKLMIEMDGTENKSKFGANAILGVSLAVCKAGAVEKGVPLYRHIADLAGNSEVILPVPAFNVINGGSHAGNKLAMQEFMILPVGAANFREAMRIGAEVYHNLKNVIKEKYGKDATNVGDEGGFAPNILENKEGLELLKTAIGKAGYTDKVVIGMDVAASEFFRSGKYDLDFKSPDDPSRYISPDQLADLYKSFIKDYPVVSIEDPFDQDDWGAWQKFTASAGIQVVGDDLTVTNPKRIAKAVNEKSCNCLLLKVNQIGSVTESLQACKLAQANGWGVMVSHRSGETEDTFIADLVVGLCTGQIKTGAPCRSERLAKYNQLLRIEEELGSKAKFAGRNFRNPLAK

SMILES: O=C1C(P(=O)(O)O)CCN1O (stereo not shown) [Deoxy-SF2312]
IC50 [1]: ~2000 nM
IC50 [2]: ~2000 nM
inhibition kinetics with respect to substrate 2-PGA [2]: clear competitive kinetics

SMILES: CC(=O)OC1CC(P(=O)(OCOC(=O)C(C)(C)C)OCOC(=O)C(C)(C)C)C(=O)N1OC(C)=O (stereo not shown) [Diacetyl-POM-SF2312, (((1,5-diacetoxy-2-oxopyrrolidin-3-yl)phosphoryl)bis(oxy))bis(methylene) bis(2,2-dimethylpropanoate)]
IC50 [3]: ~150 nM

enolase inhibitory activity [4, 17]: no enolase inhibitory activity
enolase inhibitory activity ([4]; up to 10 mM, lysates of D423 ENO1 and ENO2 expressing cells, listed as foscanet): no inhibitory activity was observed
SMILES: O=C(O)P(=O)(O)O [Foscarnet]

enolase inhibitory activity [4, 17]: no enolase inhibitory activity
enolase inhibitory activity ([4]; up to 10 mM, lysates of D423 ENO1 and ENO2 expressing cells, listed as fosfomycin): no inhibitory activity was observed
SMILES: C[C@@H]1O[C@@H]1P(=O)(O)O [Fosfomycin]

enolase inhibitory activity ([4]; even concentrations of >10,000,000 nM): completely inactive
SMILES: O=CN(O)CCCP(=O)(O)O [Fosmidomycin]
enolase inhibitory activity [4, 17]: no enolase inhibitory activity; also recorded: no inhibitory activity was observed

hydrolysis to SF2312 in media ([5]; within 24 hours): did not appreciably hydrolyze
SMILES: CC(C)(C)C(=O)OCOP(=O)(O)C1CC(O)N(O)C1=O (stereo not shown) [Hemi-Pom-SF2312]

SMILES: O=C1C(P(=O)(O)O)CCCN1O (stereo not shown) [Hex]
potency against ENO2 versus ENO1 (IC50 lower / activity greater for ENO2) ([2]; ENO2 over ENO1): approximately 6 fold
Ki for ENO2 compared with ENO1 ([2]; Lineweaver-Burke / Dixon plots): considerably lower Ki for ENO2 than ENO1
inhibition kinetics with respect to substrate 2-PGA [2]: competitive inhibitor
hematocrit after treatment (drop from 45%) [6]: 29%
dose at which mild hemolytic anemia can be observed [6]: 50 mg/kg
toxicity to ENO1 deleted glioma cells in neurosphere conditions [7]: only mildly sensitive

SMILES: O=C(CP(=O)(O)O)NO [PhAH, phosphonoacetohydroxamate]
concentration reducing ATP levels by >40% [8]: > 100 µM
IC50 [1]: ~20 nM
IC50 [2]: ~20 nM
hematocrit after treatment (drop from 45%) [6]: 29%
dose at which mild hemolytic anemia can be observed [6]: 50 mg/kg
concentration sufficient to decrease the ratio of 13C Lactate/13C glucose by 70% [9]: 50 µM

SMILES: CC(C)(C)C(=O)OCOP(=O)(OCOC(=O)C(C)(C)C)C1CCCN(O)C1=O (stereo not shown) [Pom-Hex]
IC50 [3]: ~35 nM
sensitivity of ENO1 deleted D423 glioma cells ([3]; conventional growth conditions): sensitive to even low nM levels of the inhibitor
sensitivity of normal human astrocytes [10]: highly resistant
further hydrolysis to the free phosphonate (SF2312, Hex) ([5]; 72 hours of incubation): did not proceed further
time for half of the compound to hydrolyze in media ([5]; DMEM with 10% fetal bovine serum): more than 24 hours
effect on hematocrit ([6]; doses as high as 10 mg/kg IV for up to 1 month): do not cause a statistically significant drop in hematocrit
half-life at 1.5 mM [11]: 36 h
sensitivity of cell lines heterozygously deleted for ENO1 [12]: intermediate sensitivity
effect on Gli56 intracranial tumor growth [13]: profound tumor regression
effect on D423-MG intracranial tumor [14]: completely eradicated the tumor
times more toxic to VHL deleted compared to isogenic rescued controls [15]: 4-8 times
IC50 ([4]; against ENO1 and ENO2, incubated prior to 5 mM 2-PG, contaminant Hex not ruled out): ~100000 nM
toxicity to ENO1 deleted glioma cells in neurosphere conditions [7]: highly toxic
fold more potent than Hex ([7]; FIGS. 10A & 10B, ENO1-deleted glioma cells): ≥ 200 fold

SMILES: CC(C)(C)C(=O)OCOP(=O)(OCOC(=O)C(C)(C)C)C1CC(O)N(O)C1=O (stereo not shown) [Pom-SF2312, (((1,5-dihydroxy-2-oxopyrrolidin-3-yl)phosphoryl)bis(oxy))bis(methylene)bis(2,2-dimethylpropanoate)]
maximum tolerated dose [16]: 4 MPK (mg/kg)
IC50 [3]: < 75 nM
half-life at 1.5 mM ([11]; cell culture media): 8 h

Reference: patent publication US10363261B2, “Enolase inhibitors and methods of treatment therewith” (Board of Regents, The University of Texas System, priority 2015, dated 2019)
